Test results published in the NIST ThermoML archive (doi:10.1021/je200854k).

Settings: Liquid, Capillary tube (Ostwald / Ubbelohde) method

Cc1ccccc1 [toluene]
viscosity [mPa·s]
Settings | 248.16 K | 273.15 K | 298.14 K | 323.13 K | 348.13 K
1000 kPa | 1.19 | 0.7764 | 0.5581 | 0.4252 | 0.3356
10000 kPa | 1.285 | 0.8352 | 0.6005 | 0.4563 | 0.3616
20000 kPa | 1.397 | 0.9052 | 0.644 | 0.4908 | 0.3907
30000 kPa | 1.521 | 0.9742 | 0.6909 | 0.5267 | 0.4198
40000 kPa | – | 1.045 | 0.7419 | 0.5662 | 0.4497
